According to article PMC9653166 (Journal of medicinal chemistry, 2022):
Values joined by “and” are separate entries in the source; they are usually repeats but may differ in a detail not shown here. Identical values can stand only once. “Also recorded” adds a separate entry of the source. One block for each compound: values may come before it.

Assays:
Sirt5 [1] = target: T1, Sirt5 (Homo sapiens, UniProt Q9NXA8); test: Coupled enzymatic desuccinylation assay, Sirt5 with CPS1-succK537 peptide; format: biochemical; settings: for Effect on Sirt5 activity (in words): coupled assay, 10 and 100 μM compound
T1 sequence (Q9NXA8 34-302): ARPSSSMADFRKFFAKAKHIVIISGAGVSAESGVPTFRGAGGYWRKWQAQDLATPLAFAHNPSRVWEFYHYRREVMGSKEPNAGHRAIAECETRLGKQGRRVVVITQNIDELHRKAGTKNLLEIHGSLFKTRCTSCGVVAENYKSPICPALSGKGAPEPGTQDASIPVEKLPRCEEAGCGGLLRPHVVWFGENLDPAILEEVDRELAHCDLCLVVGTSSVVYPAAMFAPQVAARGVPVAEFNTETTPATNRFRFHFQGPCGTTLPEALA

Sirt2 = target: T2, Sirt2 (Homo sapiens, UniProt Q8IXJ6); test: Coupled enzymatic deacetylation assay, Sirt2 with α-tubulin-acK25 peptide; format: biochemical; settings: for Sirt2 activation (α-tubulin-acK25 deacetylation): 100 μM compound; for Effect on Sirt2 activity (in words): coupled assay, 10 and 100 μM compound
T2 sequence (Q8IXJ6 43-356): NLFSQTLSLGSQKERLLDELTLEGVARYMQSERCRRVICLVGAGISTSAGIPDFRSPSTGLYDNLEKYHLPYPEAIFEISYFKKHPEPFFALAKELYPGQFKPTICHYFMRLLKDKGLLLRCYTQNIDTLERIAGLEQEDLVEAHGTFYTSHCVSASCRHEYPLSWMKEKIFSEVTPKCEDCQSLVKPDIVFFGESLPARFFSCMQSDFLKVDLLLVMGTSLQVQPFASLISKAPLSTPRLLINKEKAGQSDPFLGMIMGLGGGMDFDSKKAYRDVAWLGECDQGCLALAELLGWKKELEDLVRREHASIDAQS

Sirt3 [2] = target: T3, Sirt3 (Homo sapiens, UniProt Q9NTG7); test: Coupled enzymatic deacetylation assay, Sirt3 with ACS2-acK642 peptide; format: biochemical; settings: for Effect on Sirt3 activity (in words): coupled assay, ACS2 peptide, 10 and 100 μM compound
T3 sequence (Q9NTG7 114-380): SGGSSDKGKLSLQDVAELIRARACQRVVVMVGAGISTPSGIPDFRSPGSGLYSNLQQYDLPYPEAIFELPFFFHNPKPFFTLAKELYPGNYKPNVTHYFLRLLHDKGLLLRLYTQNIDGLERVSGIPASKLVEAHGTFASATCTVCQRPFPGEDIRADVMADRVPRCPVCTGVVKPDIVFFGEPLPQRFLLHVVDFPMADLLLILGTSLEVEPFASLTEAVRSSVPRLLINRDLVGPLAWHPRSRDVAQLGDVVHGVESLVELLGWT

[3] = system: mouse embryonic fibroblasts (MEFs); test: Mitochondrial mass by FACS; format: cell-based; settings: 25 μM, 24 h
GDH acetylation = test: GDH immunoprecipitation and Lys acetylation Western blot, MDA-MB-231 cells; format: cell-based, human; settings: 50 μM
MnSOD-Lys68 acetylation = MnSOD-Lys68 acetylation Western blot in MDA-MB-231 cells; format: cell-based, human
Sirt3 [4] = target: T4, Sirt3 (Homo sapiens, UniProt Q9NTG7); test: Cellular SIRT3 deacetylase activity assay; format: cell-based; settings: MDA-MB-231 cells, 50 and 100 μM, 3 h
T4 sequence (Q9NTG7 1-399): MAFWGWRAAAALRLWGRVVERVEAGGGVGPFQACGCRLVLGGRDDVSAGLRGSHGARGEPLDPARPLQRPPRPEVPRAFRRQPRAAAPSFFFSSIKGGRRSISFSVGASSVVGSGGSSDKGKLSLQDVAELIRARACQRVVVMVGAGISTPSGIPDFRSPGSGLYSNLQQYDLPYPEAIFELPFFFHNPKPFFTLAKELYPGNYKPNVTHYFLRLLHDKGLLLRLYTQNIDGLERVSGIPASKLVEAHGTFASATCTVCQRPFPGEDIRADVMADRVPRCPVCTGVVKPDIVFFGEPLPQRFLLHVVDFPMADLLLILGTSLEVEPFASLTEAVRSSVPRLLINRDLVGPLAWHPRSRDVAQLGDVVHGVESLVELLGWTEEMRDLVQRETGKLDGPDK

Sirt5 [5] = target: T5, Sirt5 (Homo sapiens, UniProt Q9NXA8); test: PDC deacylation assay: PDHA1 desuccinylation by recombinant Sirt5; format: biochemical; settings: 100 μM compound, PDHA1 from porcine heart tissue
T5 sequence (Q9NXA8 37-310): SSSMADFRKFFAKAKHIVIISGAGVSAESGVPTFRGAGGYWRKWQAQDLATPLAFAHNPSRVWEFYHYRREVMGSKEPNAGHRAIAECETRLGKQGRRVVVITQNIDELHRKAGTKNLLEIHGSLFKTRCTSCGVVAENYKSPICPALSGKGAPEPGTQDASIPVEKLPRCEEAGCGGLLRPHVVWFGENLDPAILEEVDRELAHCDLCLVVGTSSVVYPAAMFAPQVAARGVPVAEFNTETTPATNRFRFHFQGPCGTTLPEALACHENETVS

MDA-MB-231 cells = test: Ammonia level assay, MDA-MB-231 cells; format: cell-based, human; settings: 50 μM, 4 and 24 h
GDH = GDH activity assay in MDA-MB-231 cell lysates; format: cell-based, human; settings: wild-type MDA-MB-231 cells, 50 μM, 4 or 24 h
glutaminase (GLS) = test: GLS activity assay in MDA-MB-231 cell lysates; format: cell-based, human; settings: MDA-MB-231 cells, 50 μM, 4 and 24 h
GOT1 acetylation = GOT1 acetylation Western blot in pancreatic cancer cell lines; format: cell-based
Sirt5 [6] = target: T5, Sirt5; settings: cited from earlier work

SMILES: CCOC(=O)C1=CN(Cc2ccccc2)C=C(C(=O)OCC)C1c1ccc(-c2ccccc2)cc1 [Compound 2]
Effect on Sirt5 activity (in words) (Sirt5 [1]): Sirt5 activation

SMILES: CCOC(=O)C1=CN(Cc2ccccc2)C=C(C(=O)OCC)C1c1ccc2ccccc2c1 [Compound 4]
Sirt5 activation (CPS1-succK537 desuccinylation) (Sirt5 [1]; 10 μM compound): 1.2- to 1.5 fold
Effect on Sirt5 activity (in words) (Sirt5 [1]): Sirt5 activation

SMILES: CCOC(=O)C1=CN(Cc2ccccc2)C=C(C(=O)OCC)C1c1nccs1 [Compound 7]
Effect on Sirt3 activity (in words) (Sirt3 [2]): Sirt3 activation; also recorded: comparable to the parent compound

SMILES: CCOC(=O)C1=CN(Cc2ccccc2)C=C(C(=O)OCC)C1c1cc2ccccc2s1 [Compound 9]
Sirt5 activation (CPS1-succK537 desuccinylation) (Sirt5 [1]; 100 μM compound): 2- to 3 fold
Effect on Sirt5 activity (in words) (Sirt5 [1]): Sirt5 activation

SMILES: CCOC(=O)C1=CN(Cc2ccccc2)C=C(C(=O)OCC)C1c1cnc2ccccc2c1 [Compound 10]
Effect on mitochondrial mass ([3]; Sirt3 knock-out MEFs): no significant compound effect
Increase of mitochondrial mass ([3]; wild-type MEFs): about 2.5 fold
Effect on Sirt3 activity (in words) (Sirt3 [2]): Sirt3 activation; also recorded: comparable to the parent compound

SMILES: CCOC(=O)C1=CN(C(=O)c2ccccc2)C=C(C(=O)OCC)C1c1ccccc1 [Compound 11]
GDH overall Lys acetylation (GDH acetylation): decreased acetylation levels
MnSOD-Lys68 acetylation (MnSOD-Lys68 acetylation; MDA-MB-231 cells, 50 μM): decrease in MnSOD-Lys68 acetylation
MnSOD-Lys68 acetylation (MnSOD-Lys68 acetylation; Sirt3 silenced MDA-MB-231 cells, 16 h): did not decrease MnSOD-Lys68 acetylation
EC50 (Sirt3 [2]): 100 to 200 µM
Sirt3 activity (Sirt3 [2]; 100 μM compound): over 300%
FdL deacetylation (Sirt3) activity in cell lysates (Sirt3 [4]): significant increase in FdL deacetylation activity

SMILES: CCOC(=O)C1=CN(C(=O)c2ccccc2)C=C(C(=O)OCC)C1c1ccc(Cl)cc1 [Compound 14]
Sirt5 activation (CPS1-succK537 desuccinylation) (Sirt5 [1]; 10 μM compound): 1.2- to 1.5 fold

SMILES: CCOC(=O)C1=CN(C(=O)c2ccccc2)C=C(C(=O)OCC)C1c1cccc(C)c1 [Compound 16]
Ammonia accumulation (MDA-MB-231 cells): no such effects
GDH activity in cell lysates (GDH): no significant changes in GDH activity
GLS activity in cell lysates (glutaminase (GLS)): no such effects

SMILES: CCOC(=O)C1=CN(C(=O)c2ccccc2)C=C(C(=O)OCC)C1c1ccc(C)cc1 [Compound 17]
Effect on Sirt5 activity (in words) (Sirt5 [1]): specific Sirt5 activation

SMILES: CCOC(=O)C1=CN(Cc2cc(OC)c(OC)c(OC)c2)C=C(C(=O)OCC)C1c1ccccc1 [Compound 25, Diethyl 4-Phenyl-1-(3,4,5-trimethoxybenzyl)-1,4-dihydropyridine-3,5-dicarboxylate]
Effect on Sirt3 activity (in words) (Sirt3 [2]): lost their effects towards Sirt3

SMILES: CCOC(=O)C1=CN(Cc2cc(OC)c(OC)c(OC)c2)C=C(C(=O)OCC)C1c1cnc2ccccc2c1 [Compound 26, Diethyl 4-(Quinolin-3-yl)-1-(3,4,5-trimethoxybenzyl)-1,4-dihydropyridine-3,5-dicarboxylate]
Effect on Sirt3 activity (in words) (Sirt3 [2]): lost their effects towards Sirt3

SMILES: CCOC(=O)C1=CN(C(=O)c2cc(OC)c(OC)c(OC)c2)C=C(C(=O)OCC)C1c1ccoc1 [Compound 41, Diethyl 4-(Furan-3-yl)-1-(3,4,5-trimethoxybenzoyl)-1,4-dihydropyridine-3,5-dicarboxylate]
Effect on Sirt2 activity (in words) (Sirt2): smaller effects

The next lines start with results.

Effect on Sirt5 activity (in words) (Sirt5 [1]): Sirt5 activation
SMILES: CCOC(=O)C1=CN(Cc2ccccc2)C=C(C(=O)OCC)C1c1cccc2ccccc12 [Compound 3]

Sirt2 activation (α-tubulin-acK25 deacetylation) (Sirt2): less than 1.5 fold
Effect on Sirt2 activity (in words) (Sirt2): weak Sirt2 activation
SMILES: CCOC(=O)C1=CN(Cc2ccccc2)C=C(C(=O)OCC)C1c1ccco1 [Compound 5]

Sirt5-dependent desuccinylation of PDHA1 (Sirt5 [5]): clearly enhanced
Sirt5 activation (CPS1-succK537 desuccinylation) (Sirt5 [1]; 10 μM compound): 1.2- to 1.5 fold
SMILES: CCOC(=O)C1=CN(C(=O)c2ccccc2)C=C(C(=O)OCC)C1c1cccc(Cl)c1 [Compound 13]

Effect on Sirt5 activity (in words) (Sirt5 [1]): specific Sirt5 activation
SMILES: CCOC(=O)C1=CN(C(=O)c2ccccc2)C=C(C(=O)OCC)C1c1ccccc1OC [Compound 18]

Sirt5 activation (CPS1-succK537 desuccinylation) (Sirt5 [1]; 10 μM compound): 1.2- to 1.5 fold
Effect on Sirt5 activity (in words) (Sirt5 [1]): specific Sirt5 activation
SMILES: CCOC(=O)C1=CN(C(=O)c2ccccc2)C=C(C(=O)OCC)C1c1cccc(OC)c1 [Compound 19]
Ammonia accumulation (MDA-MB-231 cells): blocked ammonia accumulation
GOT1 acetylation (GOT1 acetylation; S2–013 and Capan1 cell lines, 20 μM, 24 h): decrease GOT1 acetylation
Effect on GOT1 acetylation (GOT1 acetylation; SIRT5 knockout KPC and KPCS cell lines): negligible
GDH activity in cell lysates (GDH): decreased GDH activity
In vitro Sirt5 deacetylase activity (Sirt5 [6]): increase in vitro Sirt5 deacetylase activity
GLS activity in cell lysates (glutaminase (GLS)): decreased GLS activity

Sirt5 activation (CPS1-succK537 desuccinylation) (Sirt5 [1]; 10 μM compound): 1.2- to 1.5 fold
SMILES: CCOC(=O)C1=CN(C(=O)c2ccccc2)C=C(C(=O)OCC)C1c1ccc(OC)cc1 [Compound 20]

Sirt5 activation (CPS1-succK537 desuccinylation) (Sirt5 [1]; 100 μM compound): 2- to 3 fold
Effect on Sirt5 activity (in words) (Sirt5 [1]): specific Sirt5 activation
SMILES: CCOC(=O)C1=CN(C(=O)c2cccc3ccccc23)C=C(C(=O)OCC)C1c1ccccc1 [Compound 21]

Sirt2 activation (α-tubulin-acK25 deacetylation) (Sirt2): less than 1.5 fold
Effect on Sirt3 activity (in words) (Sirt3 [2]): comparable to the parent compound
SMILES: CCOC(=O)C1=CN(C(=O)c2ccc3ccccc3c2)C=C(C(=O)OCC)C1c1ccccc1 [Compound 22]

Sirt5 activation (CPS1-succK537 desuccinylation) (Sirt5 [1]; 10 μM compound): 1.2- to 1.5 fold
Sirt5 activation (CPS1-succK537 desuccinylation) (Sirt5 [1]; 100 μM compound): 2- to 3 fold
Effect on Sirt5 activity (in words) (Sirt5 [1]): specific Sirt5 activation
SMILES: CCOC(=O)C1=CN(C(=O)c2cnccn2)C=C(C(=O)OCC)C1c1ccccc1 [Compound 23]

Sirt5 activation (CPS1-succK537 desuccinylation) (Sirt5 [1]; 10 μM compound): 1.2- to 1.5 fold
Sirt5 activation (CPS1-succK537 desuccinylation) (Sirt5 [1]; 100 μM compound): 2- to 3 fold and 2.5 fold
Effect on Sirt3 activity (in words) (Sirt3 [2]): comparable to the parent compound
SMILES: CCOC(=O)C1=CN(C(=O)c2cnc3ccccc3n2)C=C(C(=O)OCC)C1c1ccccc1 [Compound 24]

Sirt5 activation (CPS1-succK537 desuccinylation) (Sirt5 [1]; 100 μM compound): about 2 fold
SMILES: CCOC(=O)C1=CN(C(=O)c2ccccc2)C=C(C(=O)OCC)C1c1ccco1 [Compound 27, Diethyl 1-Benzoyl-4-(furan-2-yl)-1,4-dihydropyridine-3,5-dicarboxylate]

Sirt5 activation (CPS1-succK537 desuccinylation) (Sirt5 [1]; 100 μM compound): 3- to 3.5 fold
SMILES: CCOC(=O)C1=CN(C(=O)c2ccccc2)C=C(C(=O)OCC)C1c1ccoc1 [Compound 28, Diethyl 1-Benzoyl-4-(furan-3-yl)-1,4-dihydropyridine-3,5-dicarboxylate]

Sirt2 activation (α-tubulin-acK25 deacetylation) (Sirt2): 2 fold
Sirt5 activation (CPS1-succK537 desuccinylation) (Sirt5 [1]; 100 μM compound): 3- to 3.5 fold and 3.5 fold
SMILES: CCOC(=O)C1=CN(C(=O)c2cc(OC)c(OC)c(OC)c2)C=C(C(=O)OCC)C1c1cccc(N)c1 [Compound 38, Diethyl 4-(3-Aminophenyl)-1-(3,4,5-trimethoxybenzoyl)-1,4-dihydropyridine-3,5-dicarboxylate]

Effect on Sirt2 activity (in words) (Sirt2): smaller effects
SMILES: CCOC(=O)C1=CN(C(=O)c2cc(OC)c(OC)c(OC)c2)C=C(C(=O)OCC)C1c1ccco1 [Compound 40, Diethyl 4-(Furan-2-yl)-1-(3,4,5-trimethoxybenzoyl)-1,4-dihydropyridine-3,5-dicarboxylate]
